These are literature values, as cited in patent US12697292B2, “Method for treating human hair with agents containing mixtures of organic C1-C6 alkoxy siloxanes” (Henkel AG & Co. KGaA, priority 2021, dated 2026).

For the data set the following is noted: 25° C.

As to `CCN(Cc1cccc(S(=O)(=O)[O-])c1)c1ccc(C(=C2C=CC(=[N+](CC)Cc3cccc(S(=O)(=O)[O-])c3)C=C2)c2ccccc2S(=O)(=O)[O-])cc1.[Na+].[Na+]` [Acid Blue 9], the water solubility entry is on record as “more than 20 wt. %”. Regarding `O=S(=O)([O-])c1ccc(N=Nc2c(O)ccc3ccccc23)cc1.[Na+]` [Acid Orange 7, sodium salt of 4-[(2-hydroxy-1-naphthyl)azo] benzene sulphonate], the water solubility result is “more than 7 g/L”. Regarding `Nc1cc(S(=O)(=O)[O-])cc2cc(S(=O)(=O)[O-])c(N=Nc3ccccc3)c(O)c12.[Na+].[Na+]` [Acid Red 33, dianhydro salt of 5-amino-4-hydroxy-3-(phenylazo)-naphthalene-2,7-disulfonate], the water solubility is 2500 µg/mL. For `O=C([O-])c1c(Cl)c(Cl)c(Cl)c(Cl)c1-c1c2cc(Br)c(=O)c(Br)c-2oc2c(Br)c([O-])c(Br)cc12.[Na+].[Na+]` [Acid Red 92, disodium salt of 3,4,5,6-tetrachloro-2-(1,4,5,8-tetrabromo-6-hydroxy-3-oxanthene-9-yl) benzoic acid], the water solubility result is reported as “greater than 10 g/L”. With `O=C([O-])C1=NN(c2ccc(S(=O)(=O)[O-])cc2)C(=O)C1N=Nc1ccc(S(=O)(=O)[O-])cc1.[Na+].[Na+].[Na+]` (centres unmarked) [Acid Yellow 23, trisodium salt of 4,5-dihydro-5-oxo-1-(4-sulfophenyl)-4-((4-sulfophenyl)azo)-1H-pyrazole-3−carboxylic acid], the “solubility in water” value is recorded as “readily soluble”.
